“And” between values parts separate entries of the source, which are not always exact repeats. Identical values can stand only once.

The test system of this test is plasma TNFα. Nature of the test: Plasma TNFα, CMT mice treated with AAT 180 mg/kg/day sc. In kind it is in vivo, mouse. The source says:
Animals were received at 6 weeks of age and housed under controlled conditions for the duration of the study. The study comprised two groups of 8 transgenic mice (CMT mice) each and one group of 8 age matched wild type (WT) C57B16 mice, serving as positive control. Animals were assigned to the following subcutaneous treatments twice daily at 7:00 AM and 7:00 PM for 2 weeks, starting from 8 weeks and up to 10 weeks of age: • Wild-type (WT, no disease) mice receiving vehicle, 0.9% NaCl (positive control) • CMT1A mice receiving vehicle, 0.9% NaCl (negative control) • CMT1A mice receiving AAT at 90 mg/kg per injection (daily dose 180 mg/kg)
The efficacy parameters included: • neuromuscular performance (rotarod latency to fall and grip strength test), • sciatic nerve electrophysiology (CMAP amplitude and NCV) • cytokine (IL-6 and TNFα), as well as NfL analysis • sciatic nerve histology (number of axons and axonal diameter),
As supportive information for the mode of action of AAT in CMT, plasma concentration of interleukin 6 (IL-6) and TNFα were measured at Day 1 (8 weeks), Day 15 (10 weeks) and Day 30 (12 weeks). At the same timepoints, plasma levels of the biomarker of nerve damage, NfL were determined.

Consider alpha1-antitrypsin (AAT) protein, for which the “Plasma TNFα (Mean ± SD)” value (8 weeks old (baseline, Day 1), CMT1A + AAT) came to 9.80 ± 2.25 pg/mL; the “Plasma TNFα (Mean ± SD)” value (10 weeks old (Day 15, after 2 weeks AAT 90 mg/kg sc twice daily)) was 6.55 ± 2.11 pg/mL; the “Plasma TNFα (Mean ± SD)” value (12 weeks old (Day 30, after 2-week treatment-free period)) was 11.61 ± 1.00 pg/mL. Further, the “Plasma TNF-α concentration, group Mean” value (8 weeks old, CMT + hAAT 180 mg/kg/day SC, 8 animals) turned out to be 6.94 pg/mL. Where the note is “8 weeks old, CMT + hAAT 180 mg/kg/day SC, individual animal”, the “Plasma TNF-α concentration” value was 7.04 pg/mL and 7.89 pg/mL and 7.91 pg/mL and 5.44 pg/mL and 7.90 pg/mL and 5.34 pg/mL and 8.02 pg/mL and 5.95 pg/mL. In addition, the “positive effect on TNFα plasma levels” value (12 weeks of age, after 2-week treatment-free period) is reported as “remained significant”. The “plasma levels of TNFα” value (CMT mice, AAT 90 mg/kg sc twice a day, P<0.0001) was “reduced”.
